Legend:
Settings in all cases: exposure time: 72 h
E34 [1] = patient-derived glioblastoma stem cells of proneural subtype; test: surviving fraction (nuclei count normalised to DMSO); higher = more cells surviving (less toxic)
E21 [2] = patient-derived glioblastoma stem cells of mesenchymal subtype; test: as above
E31 [3] = patient-derived glioblastoma stem cells of proneural subtype; test: as above
E57 [4] = patient-derived glioblastoma stem cells of mesenchymal subtype; test: as above
FT3469 [5] = normal neural stem cell line; test: as above
E13 [6] = patient-derived glioblastoma stem cells of classical subtype; test: as above
E28 [7] = patient-derived glioblastoma stem cells of classical subtype; test: as above
E34 [8] = test: phenotypic distance (Euclidean, principal components) from DMSO controls (arbitrary units); higher = stronger morphological change
E21 [9] = test: as above
E31 [10] = test: as above
E57 [11] = test: as above
FT3469 [12] = test: as above
E13 [13] = test: as above
E28 [14] = test: as above
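Wherever phenotypic distance (Euclidean, principal components) from DMSO controls is given: cell Painting imaging in 384-well plates, CellProfiler features reduced to at least 20 principal components, Euclidean distance versus same-plate DMSO vehicle wells (0.1% v/v), median over six images per well.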
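Wherever surviving fraction (nuclei count normalised to DMSO) is given: nuclei counted by high-content imaging of Hoechst-stained cells in laminin-coated 384-well plates, relative to 0.1% DMSO vehicle wells, with staurosporine as cell-death control.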

CC[C@@H]1C(=O)N(C)c2cnc(Nc3ccc(C(=O)N[C@H]4CC[C@H](N5CCN(CC6CC6)CC5)CC4)cc3OC)nc2N1C(C)C [Volasertib]
Settings	phenotypic distance	surviving fraction
E13 [6], 4.1 nM	–	0.449
E13 [6], 12.3 nM	–	0.418
E13 [6], 37 nM	–	0.387
E13 [6], 111.1 nM	–	0.387
E13 [6], 333.3 nM	–	0.348
E13 [6], 1000 nM	–	0.301
E13 [6], 3000 nM	–	0.322
E13 [13], 4.1 nM	4.53	–
E13 [13], 12.3 nM	4.86	–
E13 [13], 37 nM	5.16	–
E13 [13], 111.1 nM	4.97	–
E13 [13], 333.3 nM	4.79	–
E13 [13], 1000 nM	5.82	–
E13 [13], 3000 nM	5.69	–
E21 [2], 4.1 nM	–	0.459
E21 [2], 12.3 nM	–	0.447
E21 [2], 37 nM	–	0.372
E21 [2], 111.1 nM	–	0.289
E21 [2], 333.3 nM	–	0.207
E21 [2], 1000 nM	–	0.205
E21 [2], 3000 nM	–	0.274
E21 [9], 4.1 nM	2.95	–
E21 [9], 12.3 nM	3.49	–
E21 [9], 37 nM	3.86	–
E21 [9], 111.1 nM	6.48	–
E21 [9], 333.3 nM	5.25	–
E21 [9], 1000 nM	6.04	–
E21 [9], 3000 nM	7.2	–
E28 [7], 4.1 nM	–	0.613
E28 [7], 12.3 nM	–	0.688
E28 [7], 37 nM	–	0.648
E28 [7], 111.1 nM	–	0.439
E28 [7], 333.3 nM	–	0.459
E28 [7], 1000 nM	–	0.386
E28 [7], 3000 nM	–	0.39
E28 [14], 4.1 nM	1.97	–
E28 [14], 12.3 nM	1.64	–
E28 [14], 37 nM	1.4	–
E28 [14], 111.1 nM	2.98	–
E28 [14], 333.3 nM	2.89	–
E28 [14], 1000 nM	3.11	–
E28 [14], 3000 nM	4.22	–
E31 [3], 4.1 nM	–	0.275
E31 [3], 12.3 nM	–	0.237
E31 [3], 37 nM	–	0.251
E31 [3], 111.1 nM	–	0.163
E31 [3], 333.3 nM	–	0.161
E31 [3], 1000 nM	–	0.148
E31 [3], 3000 nM	–	0.178
E31 [10], 4.1 nM	2.88	–
E31 [10], 12.3 nM	2.73	–
E31 [10], 37 nM	2.37	–
E31 [10], 111.1 nM	3.54	–
E31 [10], 333.3 nM	3.91	–
E31 [10], 1000 nM	4.92	–
E31 [10], 3000 nM	3.6	–
E34 [1], 4.1 nM	–	0.769
E34 [1], 12.3 nM	–	0.695
E34 [1], 37 nM	–	0.644
E34 [1], 111.1 nM	–	0.624
E34 [1], 333.3 nM	–	0.503
E34 [1], 1000 nM	–	0.414
E34 [1], 3000 nM	–	0.501
E34 [8], 4.1 nM	1.64	–
E34 [8], 12.3 nM	1.44	–
E34 [8], 37 nM	2.23	–
E34 [8], 111.1 nM	2.45	–
E34 [8], 333.3 nM	3.05	–
E34 [8], 1000 nM	4.15	–
E34 [8], 3000 nM	3.53	–
E57 [4], 4.1 nM	–	0.623
E57 [4], 12.3 nM	–	0.679
E57 [4], 37 nM	–	0.463
E57 [4], 111.1 nM	–	0.205
E57 [4], 333.3 nM	–	0.123
E57 [4], 1000 nM	–	0.12
E57 [4], 3000 nM	–	0.141
E57 [11], 4.1 nM	2.53	–
E57 [11], 12.3 nM	2.05	–
E57 [11], 37 nM	3.22	–
E57 [11], 111.1 nM	7.13	–
E57 [11], 333.3 nM	6.28	–
E57 [11], 1000 nM	6.68	–
E57 [11], 3000 nM	8.42	–
FT3469 [5], 4.1 nM	–	0.874
FT3469 [5], 12.3 nM	–	0.885
FT3469 [5], 37 nM	–	0.808
FT3469 [5], 111.1 nM	–	0.646
FT3469 [5], 333.3 nM	–	0.588
FT3469 [5], 1000 nM	–	0.506
FT3469 [5], 3000 nM	–	0.544
FT3469 [12], 4.1 nM	2.22	–
FT3469 [12], 12.3 nM	1.25	–
FT3469 [12], 37 nM	1.74	–
FT3469 [12], 111.1 nM	2.57	–
FT3469 [12], 333.3 nM	2.83	–
FT3469 [12], 1000 nM	3.25	–
FT3469 [12], 3000 nM	2.99	–

From the supplement of paper PMC13207355
